Results as given in patent US9561228B2 (Celgene Avilomics Research, Inc., priority 2013, dated 2017).

Legend:
Type in all cases: cell-based
[1] = test system: ERK1/2 phosphorylation of p90RSK in A375 cells; assay: Detection of total and phosphor-RSK by MSD ELISA (A375); details: Homo sapiens, A-375, read-out: ERK1/ERK2 PRSK A375 EC50
Method in brief: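 A375 cells serum-starved overnight in DMEM/0.1% FBS, then treated 2 h at 37° C with compound (1000× DMSO dilutions into medium). Lysates captured on RSK antibody-coated MSD plates; phospho-RSK (Ser380) and total RSK detected with SulfoTag secondary antibodies by electrochemiluminescence.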

[2] = test system: HCT116 cells (colorectal carcinoma); assay: Inhibition of cancer cell proliferation, HCT116 (CellTiterGlo, 72 hours); details: Homo sapiens, HCT-116
Method in brief: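 3000 cells per well exposed to 3-fold serial compound dilutions from 5,000 nM (two-fold solution, stock level) for 72 hours at 37° C. CellTiterGlo luminescence converted to cell number via a standard curve; percent inhibition vs untreated wells, GI50 by curve fit.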

[3] = test system: HT-29 cells (colorectal adenocarcinoma); assay: Inhibition of cancer cell proliferation, HT-29 (CellTiterGlo, 72 hours); details: Homo sapiens
Method in brief: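 HT-29 cells seeded at 3000/well, then treated with 3-fold serial dilutions from a 5,000 nM two-fold solution in serum-free RPMI1640, untreated wells as control, for 72 h at 37° C. CellTiterGlo luminescence converted to cell number via a standard curve; GI50 from percent inhibition versus untreated growth.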

Structure (SMILES)	EC50 [1]	GI50 [2]	GI50 [3]
C=CC(=O)Nc1ccccc1Nc1nc(Nc2cc(OC)cc(OC)c2)ncc1C(F)(F)F [Compound I-338, N-(2-((2-((3,5-dimethoxyphenyl)amino)-5-(trifluoromethyl)pyrimidin-4-yl)amino)phenyl)acrylamide]	< 100 nM	< 100 nM	< 100 nM
C=CC(=O)Nc1cc(C)ccc1Nc1nc(N[C@H]2CCCN(C(=O)CO)C2)ncc1Cl [Compound I-140, (S)—N-(2-((5-chloro-2-((1-(2-hydroxyacetyl)piperidin-3-yl)amino)pyrimidin-4-yl)amino)-5-methylphenyl)acrylamide]	< 100 nM	< 100 nM	< 100 nM
C=CC(=O)Nc1cc(C)ccc1Nc1nc(Nc2cc(OC)cc(OC)c2)ncc1C(F)(F)F [Compound I-339, N-(2-((2-((3,5-dimethoxyphenyl)amino)-5-(trifluoromethyl)pyrimidin-4-yl)amino)-5-methylphenyl)acrylamide]	501 to 999 nM	< 100 nM	< 100 nM
C=CC(=O)Nc1ccccc1Nc1nc(Nc2ccnnc2)ncc1C(F)(F)F [Compound I-293, N-(2-((2-(Pyridazin-4-ylamino)-5-(trifluoromethyl)pyrimidin-4-yl)amino)phenyl)acrylamide]	501 to 999 nM	101 to 500 nM	< 100 nM
C=CC(=O)Nc1cc(OC)ccc1Nc1nc(Nc2cc(OC)ncc2C)ncc1Cl [Compound I-242, N-(2-((5-chloro-2-((2-methoxy-5-methylpyridin-4-yl)amino)pyrimidin-4-yl)amino)-5-methoxyphenyl)acrylamide]	< 100 nM	101 to 500 nM	< 100 nM
C=CC(=O)Nc1cc(OC)ccc1Nc1nc(N[C@H]2CCCN(C(=O)CO)C2)ncc1C(F)(F)F [Compound I-64, (S)—N-(2-((2-((1-(2-Hydroxyacetyl)piperidin-3-yl)amino)-5-(trifluoromethyl)pyrimidin-4-yl)amino)-5-methoxyphenyl)acrylamide]	101 to 500 nM	< 100 nM	< 100 nM
C=CC(=O)Nc1cc(OC)ccc1Nc1nc(Nc2cc(OC)ncc2C)ncc1C(F)(F)F [Compound I-284, N-(5-Methoxy-2-((2-((2-methoxy-5-methylpyridin-4-yl)amino)-5-(trifluoromethyl)pyrimidin-4-yl)amino)phenyl)acrylamide]	< 100 nM	101 to 500 nM	501 to 999 nM
C=CC(=O)Nc1ccccc1Nc1nc(Nc2cc(C(N)=O)ccc2C)ncc1C(F)(F)F [Compound I-68, 3-(4-(2-Acrylamidophenylamino)-5-(trifluoromethyl)pyrimidin-2-ylamino)-4-methylbenzamide]	101 to 500 nM	< 100 nM	< 100 nM

Second part, the compound after the results:

EC50 [1]	GI50 [2]	GI50 [3]	Structure (SMILES)
101 to 500 nM	< 100 nM	< 100 nM	C=CC(=O)Nc1cc(C)ccc1Nc1nc(Nc2cc(OC)nc(N3CCOCC3)c2)ncc1C(F)(F)F [Compound I-94, N-(2-((2-((2-Methoxy-6-morpholinopyridin-4-yl)amino)-5-(trifluoromethyl)pyrimidin-4-yl)amino)-5-methylphenyl)acrylamide]
< 100 nM	< 100 nM	< 100 nM	C=CC(=O)Nc1ccccc1Nc1nc(Nc2cc(OC)nc(N3CCCC3)c2)ncc1C(F)(F)F [Compound I-281, N-(2-((2-((2-Methoxy-6-(pyrrolidin-1-yl)pyridin-4-yl)amino)-5-(trifluoromethyl)pyrimidin-4-yl)amino)phenyl)acrylamide]
< 100 nM	< 100 nM	< 100 nM	C=CC(=O)Nc1cc(OC)ccc1Nc1nc(Nc2cc(OC)nc(N3CCN(C)CC3)c2)ncc1C(F)(F)F [Compound I-334, N-(5-methoxy-2-((2-((2-methoxy-6-(4-methylpiperazin-1-yl)pyridin-4-yl)amino)-5-(trifluoromethyl)pyrimidin-4-yl)amino)phenyl)acrylamide]
101 to 500 nM	< 100 nM	< 100 nM	C=CC(=O)Nc1cc(OC)ccc1Nc1nc(Nc2cc(OC)nc(N3CCN(CC)CC3)c2)ncc1C(F)(F)F [Compound I-88, N-(2-((2-((2-(4-Ethylpiperazin-1-yl)-6-methoxypyridin-4-yl)amino)-5-(trifluoromethyl)pyrimidin-4-yl)amino)-5-methoxyphenyl)acrylamide]
101 to 500 nM	< 100 nM	< 100 nM	C=CC(=O)Nc1cc(C)ccc1Nc1nc(Nc2cc(OC)nc(N3CCN(CC)CC3)c2)ncc1C(F)(F)F [Compound I-89, N-(2-((2-((2-(4-Ethylpiperazin-1-yl)-6-methoxypyridin-4-yl)amino)-5-(trifluoromethyl)pyrimidin-4-yl)amino)-5-methylphenyl)acrylamide]
< 100 nM	< 100 nM	< 100 nM	C=CC(=O)Nc1ccccc1Nc1nc(Nc2cc(OC)nc(N3CCCCC3)c2)ncc1C(F)(F)F [Compound I-282, N-(2-((2-((2-Methoxy-6-(piperidin-1-yl)pyridin-4-yl)amino)-5-(trifluoromethyl)pyrimidin-4-yl)amino)phenyl)acrylamide]
< 100 nM	< 100 nM	< 100 nM	C=CC(=O)Nc1ccccc1Nc1nc(Nc2cc(OC)nc(OCCOC)c2)ncc1C(F)(F)F [Compound I-283, N-(2-((2-((2-Methoxy-6-(2-methoxyethoxyl)pyridin-4-yl)amino)-5-(trifluoromethyl)pyrimidin-4-yl)amino)phenyl)acrylamide]
< 100 nM	< 100 nM	< 100 nM	C=CC(=O)Nc1ccccc1Nc1nc(Nc2cc(OC)nc(OC)c2)ncc1C(F)(F)F [Compound I-95, N-(2-((2-((2,6-Dimethoxypyridin-4-yl)amino)-5-(trifluoromethyl)pyrimidin-4-yl)amino)phenyl)acrylamide]
< 100 nM	< 100 nM	< 100 nM	C=CC(=O)Nc1ccccc1Nc1nc(Nc2cc(OC)nc(N3CCS(=O)(=O)CC3)c2)ncc1C(F)(F)F [Compound I-291, N-(2-((2-((2-(1,1-Dioxidothiomorpholino)-6-methoxypyridin-4-yl)amino)-5-(trifluoromethyl)pyrimidin-4-yl)amino)phenyl)acrylamide]
< 100 nM	< 100 nM	< 100 nM	C=CC(=O)Nc1ccccc1Nc1nc(Nc2cc(NCCOC)nc(OC)c2)ncc1C(F)(F)F [Compound I-286, N-(2-((2-((2-Methoxy-6-((2-methoxyethyl)amino)pyridin-4-yl)amino)-5-(trifluoromethyl)pyrimidin-4-yl)amino)phenyl)acrylamide]
< 100 nM	< 100 nM	< 100 nM	C=CC(=O)Nc1cc(C)ccc1Nc1nc(Nc2cc(OC)nc(N3CC(O)C3)c2)ncc1C(F)(F)F [Compound I-328, N-(2-((2-((2-(3-hydroxyazetidin-1-yl)-6-methoxypyridin-4-yl)amino)-5-(trifluoromethyl)pyrimidin-4-yl)amino)-5-methylphenyl)acrylamide]
